Reference: patent US5804402A, “Reagent” (priority 1995, dated 1998)

Target: T1, L-alanine dehydrogenase (A.D) (Bacillus subtilis, UniProt Q08352)
T1 sequence (Q08352 1-378): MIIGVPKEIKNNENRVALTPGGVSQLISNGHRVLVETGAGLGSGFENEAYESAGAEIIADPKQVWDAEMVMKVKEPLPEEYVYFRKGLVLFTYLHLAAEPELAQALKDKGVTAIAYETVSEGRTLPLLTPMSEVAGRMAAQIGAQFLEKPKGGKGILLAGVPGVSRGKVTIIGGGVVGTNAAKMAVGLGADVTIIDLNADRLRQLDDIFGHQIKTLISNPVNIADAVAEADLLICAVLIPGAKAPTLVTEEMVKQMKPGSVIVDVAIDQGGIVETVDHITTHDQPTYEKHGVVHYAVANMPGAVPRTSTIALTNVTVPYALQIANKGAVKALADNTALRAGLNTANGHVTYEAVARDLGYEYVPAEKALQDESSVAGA
Assay: Relative activity of substrate with L-alanine dehydrogenase
Type: biochemical
Conditions: relative to L-alanine (100%)
Description: If L-alanine dehydrogenase (A.D) is used as the enzyme in a reaction system similar to that used for leucine dehydrogenase, a suitable substrate and its activity relative to L-alanine (100%) is […]

N[C@@H](CO)C(=O)O [L-serine]
Relative Activity: 5%
